Assay results from paper PMC7332481, “Ecotoxicity screening evaluation of selected pharmaceuticals and their transformation products towards various organisms” (Environmental Science and Pollution Research International, 2020).
≈ marks a conversion by molar mass, not a printed value. Where two headings read alike, the source gives them in different places.

How the values were obtained:
Raphidocelis subcapitata = assay: R. subcapitata reproduction (growth) inhibition test; format: cell-based; settings: Raphidocelis subcapitata; for inhibition at 100 µg/mL / inhibition at 5 µg/mL: read-out: Growth inhibition of R. subcapitata; for EC50: 72 h, growth inhibition by cell counts, read-out: EC50 R. subcapitata (with confidence interval 2.5–97.5%)
Protocol: (§1) All tests were carried out in accordance with the OECD or ISO guidelines. In general the experimental part was divided into three main steps: (i) determination of the toxicity of the native forms of pharmaceuticals (their racemic mixtures), (ii) toxicity evaluation of the selected TPs of these pharmaceuticals, and (iii) preliminary toxicity assessment of the enantiomers of selected pharmaceuticals. For each assay, range-finding tests were conducted, in order to determine the range of concentrations for the definitive tests. The main tests were repeated three times in at least two parallel replicates, with a minimum of five concentrations for native forms of the selected pharmaceuticals (including their enantiomers). The exact number of replicates and concentrations tested was included in the description of each test. […] However, TPs were tested in a different manner; first, the tests were carried out at the limit concentration of 100 mg L^−1. […] Such approach was applied in order to observe the relative toxicity of the selected TP and its native form.
(§2) Dose-response curves were fitted using a linear logistic or logistic model (the model giving the best fit was chosen) (https://cran.r-project.org/web/packages/drfit/drfit.pdf). The mathematic formulas applied for this purpose are presented and described in the Supplementary Material. The EC50 values were given since log EC50 is a model parameter in the logistic as well as in linear logistic model.
Test organisms were provided from Algal Culture Collection (Universität Göttingen, Germany). […] The light-dark cycle was different from the OECD guidelines, and it was introduced to imitate natural growth conditions. In order to ensure that the algae are in the exponential growth phase when used to inoculate the test solutions, the stock culture was diluted three times a week. The test was carried out in 25 mL suspension cell culture flasks (Nunc) (working volume 10 mL). All operations were performed under sterile conditions. The initial cell concentration was 5 × 10^4 cells mL^−1. Eight different concentrations of every compound in three replicates and a minimum of six controls were used in each test. […] The test flasks were incubated on a shaker with a speed of approx. 75 rpm at the temperature and light conditions described above. Growth inhibition was calculated using the cell counts of the treated samples in relation to the untreated controls after 72 h of exposure. The cells were counted with the use of CASY TT Cell counter & analyzer.

Lemna minor = assay: L. minor growth inhibition test; settings: for EC50: 168 h, read-out: EC50 L. minor (with confidence interval 2.5–97.5%), growth rate inhibition by frond area, 7 days; for toxicity to L. minor: highest tested concentration (100 mg L^−1)
Protocol: as §1, §2
One week before the assay, the inoculum cultures were prepared; eight healthy plants were placed into a new portion of the medium. Two days before the test, the plants were transferred to a fresh medium, in order to supplement nutrients and to eliminate plant metabolites. The experiments were performed in six-well plates under the conditions described above. The pH value of the Steinberg medium and all solutions was 5.5 (± 0.5). Every test included six different concentrations of compound and six controls in three replicates. The test started with one plant consisting of three fronds and the measured endpoint was the inhibition of growth rate determined by comparing the frond area (mm^2) for the treated plants and untreated controls.

Vibrio fischeri = assay: microbe, parasite or virus in culture; format: cell-based; settings: for EC50: 0.5 h, luminescence inhibition, 30 min, 15 °C, read-out: EC50 V. fischeri (with confidence interval 2.5–97.5%)
Protocol: (§3) Stock solutions and dilutions were prepared in 2% NaCl in 0.02 M phosphate buffer, pH 7. The freeze-dried bacteria were rehydrated prior to testing in a reactivation solution. Culture suspensions and diluted samples were pre-incubated at 15 °C for 15 min. After the initial luminescence was measured, 0.5 mL of the culture suspension was mixed with the same volume of a diluted sample. The final bioluminescence was measured after 30 min. Incubation was kept at 15 °C (LUMIStox 300 meter, Dr. Lange GmbH, Berlin, Germany). The relative toxicity of the samples was expressed as a percentage of luminescence inhibition compared to the controls.
as §3, with “m,” for “meter,”

Daphnia magna = assay: D. magna acute immobilization test; format: in vivo; settings: Daphnia magna; for mortality at 100 µg/mL: concentration 100 mg L^−1; for EC50: immobilization, 48 h, read-out: EC50 D. magna (with confidence interval 2.5–97.5%); for mortality at 40 µg/mL / mortality at 70 µg/mL: read-out: Immobilization
Protocol: as §1, §2
Five pre-fed test organisms were incubated with the studied compounds diluted in 10 mL of test media in glass test vessels at 20 °C (± 1 °C) in darkness for 48 h. Each test consisted of a control and five different concentrations of the studied compound in four parallel replicates. In order to achieve a full dose-response relationship, the concentration series covered the range of 0–100% immobilization. The number of immobilized or dead organisms was checked after 24 and 48 h. The negative effect of exposure to the tested compounds was expressed by the number of immobilized organisms compared to the controls.

Arthrobacter globiformis = assay: A. globiformis dehydrogenase inhibition test (version without soil); settings: read-out: EC50 A. globiformis
Protocol: as §1
The test strain was obtained from the German Collection of Microorganisms (DSMZ). A version of the test without soil was performed. Bacteria was grown in a sterile medium containing 10 g L^−1 peptone from casein, 5 g L^−1 yeast extract, 5 g L^−1 glucose, and 5 g L^−1 NaCl. For the test, the medium was diluted in a ratio of 1:3 in water. The inoculum was the bacteria in a log-growth phase. Cell density was adjusted to 1 × 10^8 cells mL^−1, which corresponds to an optical density (OD600nm) of 0.4. The test was performed in 24-well microplates. Each well contained 1 mL of solution of the tested compound in water and 1 mL of bacterial inoculum. Next, the plates were incubated for 2 h at 30 °C on a horizontal shaker with a speed of 100 rpm. To each well, a portion of 0.6 mL of the redox active dye resazurine (45 mg L^−1) dissolved in buffer was added. The microplates were further incubated for 1 h (30 °C, 100 rpm). To stop the reduction process, the plates were centrifuged at 3600g for 10 min. Aliquots (300 μl) of supernatant from each well were immediately transferred to the wells of a 96-well microplate in triplicates. Finally, the dehydrogenase activity was determined by measuring the formation of resorufin from resazurine using a fluorimeter ([…]). Dehydrogenase inhibition was calculated using Eq. 1.
where FBTS is the measured fluorescence of the blank (medium) with the tested substance, FTS is the measured fluorescence of the sample, FBNC is the measured fluorescence of the blank, and FNC is the measured fluorescence of the negative control (with bacteria).

aquatic organisms = settings: for the organisms named in the sentence
[1] = Lemna minor, read-out: Growth inhibition of L. minor
[2] = Aliivibrio fischeri, concentration 100 mg L^−1, read-out: Luminescence inhibition
[3] = Aliivibrio fischeri, read-out: Luminescence inhibition

| Compound | inhibition at 100 µg/mL (Raphidocelis subcapitata; concentration 100 mg L^−1) | inhibition at 100 µg/mL (Vibrio fischeri; [2]) | mortality at 100 µg/mL (Daphnia magna) | EC50 (Raphidocelis subcapitata) | EC50 (Lemna minor; Lemna minor) | EC50 (Daphnia magna) | EC50 (Arthrobacter globiformis) | inhibition at 100 µg/mL (Lemna minor; [1]) | further results |
| --- | --- | --- | --- | --- | --- | --- | --- | --- | --- |
| NC(=O)N1c2ccccc2C2OC2c2ccccc21 (stereo not shown) [CRB-Ep, Carbamazepine 10,11-epoxide] | 37% | 30% | 0% | – | – | – | – | – | inhibition at 50 µg/mL (Lemna minor; [1]): 32% |
| CC(C)Cc1ccc([C@H](C)C(=O)O)cc1 [IBU Isomer S, S-ibuprofen] | – | – | – | 26.6 µg/mL (≈ 129 µM) | 26.3 µg/mL (≈ 128 µM) | 63.1 µg/mL (≈ 306 µM) | – | – | – |
| CC(C)Cc1ccc(C(C)C(=O)O)cc1 (stereo not shown) [IBU, Ibuprofen] | 52% | – | – | 93.3 µg/mL (≈ 452 µM) | 13.2 µg/mL (≈ 64.2 µM) | 50.1 µg/mL (≈ 243 µM) | > 100 µg/mL | – | inhibition at 15 µg/mL (Lemna minor; [1]): 54%; inhibition at 10 µg/mL (Vibrio fischeri; Aliivibrio fischeri, concentration 10 mg L^−1, read-out: Luminescence inhibition): 42%; mortality at 50 µg/mL (Daphnia magna; concentration 50 mg L^−1): 52% |
| COCCc1ccc(OCC(O)CNC(C)C)cc1 (stereo not shown) [MET, Metoprolol] | 90% | 3% | 4% | 35.6 µg/mL (≈ 133 µM) | > 100 µg/mL | > 100 µg/mL | > 100 µg/mL | 5% | EC50 (Vibrio fischeri; Aliivibrio fischeri): > 100 µg/mL |
| CC(C)NCC(O)COc1ccc(CC(=O)O)cc1 (stereo not shown) [MET-ACID, Metoprolol acid] | 0% | 0% | 0% | – | – | – | – | 5% | toxicity to L. minor (Lemna minor): non-toxic |
| CC(=O)Nc1ccc(S(=O)(=O)Nc2cc(C)on2)cc1 [N4-SMZ, N^4-Acetylsulfamethoxazole] | – | – | – | – | – | – | – | – | inhibition at 5 µg/mL (Raphidocelis subcapitata): 27%; inhibition at 3 µg/mL (Lemna minor; [1]): 17%; toxic effect / risk to V. fischeri (Vibrio fischeri): negligible; inhibition at 50 µg/mL (Vibrio fischeri; [3]): 8%; mortality at 40 µg/mL (Daphnia magna): 0% |
| CC(C(=O)O)c1ccc2cc(O)ccc2c1 (stereo not shown) [O-DES-NAP, O-Desmethylnaproxen] | – | – | – | – | – | – | – | – | inhibition at 25 µg/mL (Vibrio fischeri; Aliivibrio fischeri, concentration 25 mg L^−1, read-out: Luminescence inhibition): 20%; mortality at 70 µg/mL (Daphnia magna; concentration 70 mg L^−1): 0% |
| CN(C)CC1CCCCC1(O)c1cccc(O)c1 (stereo not shown) [O-DES-TRA, O-Desmethyltramadol] | – | – | – | – | – | – | – | 0% | inhibition at 100 µg/mL (Raphidocelis subcapitata): 35%; toxicity to L. minor (Lemna minor): non-toxic; inhibition at 100 µg/mL (Vibrio fischeri; [3]): 0%; mortality at 70 µg/mL (Daphnia magna): 8% |
| Cc1cc(NS(=O)(=O)c2ccc(N)cc2)no1 [SMZ, Sulfamethoxazole] | – | – | – | – | – | 42.7 µg/mL (≈ 169 µM) | > 100 µg/mL | – | inhibition at 5 µg/mL (Raphidocelis subcapitata; concentration 5 mg L^−1): 43%; inhibition at 3 µg/mL (Lemna minor; [1]): 49%; classification on the basis of EC50 values (EC 93/67/EEC) (aquatic organisms): toxic to aquatic organisms (1–10 mg L^−1 are “toxic to aquatic organisms”); EC50 (Vibrio fischeri; Aliivibrio fischeri): 51.8 µg/mL (≈ 204 µM); inhibition at 50 µg/mL (Vibrio fischeri; Aliivibrio fischeri, concentration 50 mg L^−1, read-out: Luminescence inhibition): 46%; mortality at 40 µg/mL (Daphnia magna; concentration 40 mg L^−1): 48% |
